Results taken from patent publication US20260132420A1, “VIRAL VECTORS FOR NUCLEAR REPROGRAMMING” (Mayor Foundation for Medical Education and Research, priority 2016, published 2026).

Assays:
BJ cells [1] = assay: Transduction efficiency by GFP expression (microscopy, flow cytometry); format: cell-based, human; details: added at transduction with MV vector, 48 hours
Excerpt: (§1) To increase transduction efficiency the spinoculation technique was established. To reduce MV-induced toxicity, the MOI of transduction was decreased. BJ cells, a neonatal foreskin human cells were purchased from the American Type Culture Collection (ATCC #CRL 2522), and were transduced with the 4F vector at a MOI of 1 instead of 6 as described elsewhere (Driscoll et al., Stem Cell Research and Therapy 6:48 (2015)). In order to induce TLR3 activation during MV reprogramming, the transduction was performed in presence of polyI:C (a TLR3 activator). Transduced cells were subjected or not to spinoculation at 1000 rpm for 1 hour at room temperature. The culture supernatants were replaced with BJ media every three days. After 9 days, optimized serum-free/feeder-free iPSC medium was added and replaced daily. The cells were monitored until reprogrammed cells form small colonies with iPSC morphology (one to two weeks after vector transduction). Pictures were taken at different stages. iPS-like clones were picked after three to four weeks, and plated at 1 colony/well in Matrigel-coated wells for further expansion. […] The most efficient MOI for each vector was determined.
Transduction efficacy of the vectors was tested at different MOI using light microscopy and flow cytometry and testing for GFP expression. BJ cells were transduced with 4F* at a MOI of 0.5 or 0.25. […]

BJ cells [2] = assay: Reprogramming of BJ human fibroblasts into iPSC-like clones; format: cell-based; details: SB431542 5 μM, PD0325901 0.2 μM, Thiazovivin 0.5 μM together, day 7 to 14
Protocol: Using a reprogramming protocol described elsewhere (Driscoll et al., Stem Cell Research and Therapy 6:48 (2015)), an iPSC-like clone with MV(OCT4)P-ΔH(KLF4) (GFP)H or MV(T) vector in combination with 2 LV encoding SOX2 and cMYC was obtained. The clone obtained with vector MV(T) was analyzed for pluripotency markers (FIGS. 2B and C), for its ability to spontaneously differentiate into the three germ lineages after EB formation (not shown), and its ability to differentiate into contracting cardiomyocytes through guided cardiac differentiation (FIG. 2D).
as §1, with “After 9 days, optimized serum-free/feeder-free iPSC medium was added and replaced daily.” left out, “transduction).” for “transduction). Pictures were taken at different stages. iPS-like clones were picked after three to four weeks, and plated at 1 colony/well in Matrigel-coated wells for further expansion.”
The ability of the MV(OCT4) mir375 to reprogram BJ cells in presence of 3LV expressing SOX2, KLF4, and cMYC was analyzed, and its efficiency was compared to MV(OCT4) and 4LV. […] Using light and fluorescence microscopy, early phases of iPSC-like clone development with MV(OCT4)miR375 were observed (15 days post transduction, FIG. 6B). […] The expression of the N mRNA in the early passages of four iPSC-like clones derived from MV(OCT4)miR375 was analyzed. […] RNA was collected at each passage and RT-PCR for N and P mRNA was analyzed. […]
The ability of the 4F* to reprogram BJ cells was analyzed. […]

| Compound | effect on expression of measles proteins (GFP) (BJ cells [1]) | effect of added small molecules on reprogramming efficiency of MV four factor vectors (BJ cells [2]) |
| --- | --- | --- |
| polyI:C | does not affect the expression of measles proteins | – |
| NC(=O)c1ccc(-c2nc(-c3ccc4c(c3)OCO4)c(-c3ccccn3)[nH]2)cc1 [SB431542] | – | improved efficiency |
| O=C(NCc1ccccc1)c1csc(Nc2ccncn2)n1 [Thiazovivin] | – | improved efficiency |
| O=C(NOC[C@H](O)CO)c1ccc(F)c(F)c1Nc1ccc(I)cc1F [PD0325901] | – | improved efficiency |
